According to ChEMBL document CHEMBL1148517, “A new class of selective, non-basic 5-HT2A receptor antagonists” (Bioorg Med Chem Lett, 2006):

biological target: T1, 5-hydroxytryptamine receptor 2A (Homo sapiens, UniProt P28223); test: Binding affinity to human 5HT2A
T1 sequence (P28223 whole entry): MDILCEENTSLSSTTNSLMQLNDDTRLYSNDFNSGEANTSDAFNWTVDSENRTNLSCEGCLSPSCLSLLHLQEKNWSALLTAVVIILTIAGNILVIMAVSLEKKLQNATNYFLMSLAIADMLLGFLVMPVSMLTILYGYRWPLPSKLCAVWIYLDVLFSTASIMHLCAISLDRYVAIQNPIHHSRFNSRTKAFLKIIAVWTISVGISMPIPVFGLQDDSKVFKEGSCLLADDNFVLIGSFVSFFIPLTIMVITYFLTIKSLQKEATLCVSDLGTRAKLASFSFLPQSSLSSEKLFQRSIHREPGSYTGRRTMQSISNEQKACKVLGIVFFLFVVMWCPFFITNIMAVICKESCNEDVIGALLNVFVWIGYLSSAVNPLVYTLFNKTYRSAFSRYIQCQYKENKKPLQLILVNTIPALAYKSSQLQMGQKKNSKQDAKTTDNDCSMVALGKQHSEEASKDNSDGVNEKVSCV

| Structure (SMILES) | Ki [nM] |
| --- | --- |
| O=S(=O)(c1ccc(F)cc1)N1CCC(F)(CCc2ccc(F)cc2F)CC1 | 24 |
| O=C(c1cccc2cccnc12)N1CCC(CCc2ccc(F)cc2F)CC1 | 2.9 |
| N#Cc1c[nH]c2c(C(=O)N3CCN(CCc4ccc(F)cc4F)CC3)cccc12 | 0.87 |
| O=S(=O)(c1ccc(F)cc1)N1CC=C(CCc2ccc(F)cc2F)CC1 | 22 |
| O=S(=O)(c1ccc(F)cc1)N1CCC(O)(CCc2ccc(F)cc2F)CC1 | 190 |

Now from value to compound:

| Ki [nM] | Structure (SMILES) |
| --- | --- |
| 8.1 | N#Cc1ccccc1S(=O)(=O)N1CCC(CCc2ccc(F)cc2F)CC1 |
| 1.7 | O=S(=O)(c1cccc2ccccc12)N1CCC(CCc2ccc(F)cc2F)CC1 |
| 4.4 | O=S(=O)(c1ccc(F)cc1)N1CCN(CCc2ccc(F)cc2F)CC1 |
| 9.9 | O=S(=O)(c1ccccc1F)N1CCC(CCc2ccc(F)cc2F)CC1 |
| 6.1 | O=S(=O)(c1ccccc1Cl)N1CCC(CCc2ccc(F)cc2F)CC1 |
| 52 | O=S(=O)(c1ccc(F)cc1)N1CCC(CCc2ccc(F)cc2F)CC1 |
| 2.1 | O=S(=O)(c1cccc2cccnc12)N1CCC(CCc2ccc(F)cc2F)CC1 |
| 14 | O=S(=O)(c1cccc(F)c1)N1CCC(CCc2ccc(F)cc2F)CC1 |

biological target: T1, 5-hydroxytryptamine receptor 2A; test: Antagonist activity against human 5HT2A transfected in CHO cells by aurora beta lactamase reporter gene assay; format: functional, cell-based

| Structure (SMILES) | IC50 [nM] |
| --- | --- |
| O=S(=O)(c1cccc(F)c1)N1CCC(CCc2ccc(F)cc2F)CC1 | 319 |

biological target: Voltage-gated inwardly rectifying potassium channel KCNH2 (Homo sapiens, UniProt Q12809); test: Binding affinity to human IKr
Sequence (Q12809 whole entry): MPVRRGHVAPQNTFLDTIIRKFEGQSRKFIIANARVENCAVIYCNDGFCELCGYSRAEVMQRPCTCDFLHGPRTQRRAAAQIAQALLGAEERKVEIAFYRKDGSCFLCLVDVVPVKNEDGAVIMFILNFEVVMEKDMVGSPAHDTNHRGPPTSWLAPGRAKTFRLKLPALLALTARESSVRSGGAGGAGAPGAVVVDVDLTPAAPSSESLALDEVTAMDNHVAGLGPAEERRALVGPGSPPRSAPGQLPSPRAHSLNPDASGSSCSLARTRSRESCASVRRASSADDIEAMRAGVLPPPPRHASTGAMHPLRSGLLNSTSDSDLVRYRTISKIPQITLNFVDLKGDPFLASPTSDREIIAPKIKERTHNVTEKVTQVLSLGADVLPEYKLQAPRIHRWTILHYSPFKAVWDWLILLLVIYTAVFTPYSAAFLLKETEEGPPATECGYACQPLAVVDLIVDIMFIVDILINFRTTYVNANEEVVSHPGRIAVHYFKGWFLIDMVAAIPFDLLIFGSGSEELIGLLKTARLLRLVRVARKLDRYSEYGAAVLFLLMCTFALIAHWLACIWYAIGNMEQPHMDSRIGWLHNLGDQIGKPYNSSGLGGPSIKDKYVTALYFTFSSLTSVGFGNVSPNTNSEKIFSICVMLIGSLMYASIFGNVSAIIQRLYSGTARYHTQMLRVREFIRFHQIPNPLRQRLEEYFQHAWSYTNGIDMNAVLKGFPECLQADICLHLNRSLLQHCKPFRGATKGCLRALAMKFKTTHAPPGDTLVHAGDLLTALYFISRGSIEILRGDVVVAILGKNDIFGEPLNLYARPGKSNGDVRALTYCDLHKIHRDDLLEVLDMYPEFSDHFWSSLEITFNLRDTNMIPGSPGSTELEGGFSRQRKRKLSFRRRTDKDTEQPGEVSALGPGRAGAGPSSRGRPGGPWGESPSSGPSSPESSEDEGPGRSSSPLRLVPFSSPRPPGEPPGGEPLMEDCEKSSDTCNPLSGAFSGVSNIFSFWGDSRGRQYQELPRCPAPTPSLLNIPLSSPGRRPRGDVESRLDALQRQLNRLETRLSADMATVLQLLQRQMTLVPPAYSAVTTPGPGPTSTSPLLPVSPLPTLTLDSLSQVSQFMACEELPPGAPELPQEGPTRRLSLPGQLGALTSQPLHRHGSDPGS

| Structure (SMILES) | Ki [nM] |
| --- | --- |
| N#Cc1ccccc1S(=O)(=O)N1CCC(CCc2ccc(F)cc2F)CC1 | > 9000 |
| O=S(=O)(c1cccc2ccccc12)N1CCC(CCc2ccc(F)cc2F)CC1 | > 9000 |
| O=S(=O)(c1ccc(F)cc1)N1CCC(F)(CCc2ccc(F)cc2F)CC1 | > 9000 |
| O=C(c1cccc2cccnc12)N1CCC(CCc2ccc(F)cc2F)CC1 | > 9000 |
| N#Cc1c[nH]c2c(C(=O)N3CCN(CCc4ccc(F)cc4F)CC3)cccc12 | 1270 |
| O=S(=O)(c1ccc(F)cc1)N1CCN(CCc2ccc(F)cc2F)CC1 | 4870 |
| O=S(=O)(c1ccccc1F)N1CCC(CCc2ccc(F)cc2F)CC1 | > 9000 |
| O=C(c1ccccc1F)N1CCC(CCc2ccc(F)cc2F)CC1 | > 9000 |
| O=S(=O)(c1ccccc1Cl)N1CCC(CCc2ccc(F)cc2F)CC1 | > 9000 |
| O=S(=O)(c1ccc(F)cc1)N1CC=C(CCc2ccc(F)cc2F)CC1 | > 9000 |
| O=S(=O)(c1ccc(F)cc1)N1CCC(CCc2ccc(F)cc2F)CC1 | > 9000 |
| O=S(=O)(c1cccc2cccnc12)N1CCC(CCc2ccc(F)cc2F)CC1 | > 9000 |
| O=S(=O)(c1ccc(F)cc1)N1CCC(O)(CCc2ccc(F)cc2F)CC1 | > 9000 |
| O=S(=O)(c1cccc(F)c1)N1CCC(CCc2ccc(F)cc2F)CC1 | > 9000 |

biological target: D(2) dopamine receptor (Homo sapiens, UniProt P14416); test: Binding affinity to human D2 receptor
Sequence (P14416 whole entry): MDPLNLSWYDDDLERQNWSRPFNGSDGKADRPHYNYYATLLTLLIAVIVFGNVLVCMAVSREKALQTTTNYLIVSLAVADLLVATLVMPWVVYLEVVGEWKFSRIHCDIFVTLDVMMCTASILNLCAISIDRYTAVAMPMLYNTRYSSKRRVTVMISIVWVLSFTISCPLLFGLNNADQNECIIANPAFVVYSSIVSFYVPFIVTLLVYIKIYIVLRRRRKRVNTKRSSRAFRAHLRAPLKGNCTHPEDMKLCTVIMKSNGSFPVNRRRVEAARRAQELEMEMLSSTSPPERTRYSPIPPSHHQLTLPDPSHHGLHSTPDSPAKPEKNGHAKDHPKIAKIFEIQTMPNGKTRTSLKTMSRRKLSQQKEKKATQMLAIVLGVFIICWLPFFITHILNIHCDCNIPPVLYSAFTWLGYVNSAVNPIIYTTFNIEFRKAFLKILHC

| Structure (SMILES) | Ki [nM] |
| --- | --- |
| O=S(=O)(c1ccc(F)cc1)N1CCC(F)(CCc2ccc(F)cc2F)CC1 | > 1000 |
| O=C(c1cccc2cccnc12)N1CCC(CCc2ccc(F)cc2F)CC1 | > 1000 |
| N#Cc1c[nH]c2c(C(=O)N3CCN(CCc4ccc(F)cc4F)CC3)cccc12 | > 1000 |
| O=C(c1ccccc1F)N1CCC(CCc2ccc(F)cc2F)CC1 | > 1000 |
| O=S(=O)(c1ccc(F)cc1)N1CC=C(CCc2ccc(F)cc2F)CC1 | > 1000 |
| O=S(=O)(c1ccc(F)cc1)N1CCC(O)(CCc2ccc(F)cc2F)CC1 | > 1000 |

More lines, now with the values ahead:

| Ki [nM] | Structure (SMILES) |
| --- | --- |
| > 1000 | N#Cc1ccccc1S(=O)(=O)N1CCC(CCc2ccc(F)cc2F)CC1 |
| > 1000 | O=S(=O)(c1cccc2ccccc12)N1CCC(CCc2ccc(F)cc2F)CC1 |
| > 1000 | O=S(=O)(c1ccc(F)cc1)N1CCN(CCc2ccc(F)cc2F)CC1 |
| > 1000 | O=S(=O)(c1ccccc1F)N1CCC(CCc2ccc(F)cc2F)CC1 |
| > 1000 | O=S(=O)(c1ccccc1Cl)N1CCC(CCc2ccc(F)cc2F)CC1 |
| > 1000 | O=S(=O)(c1ccc(F)cc1)N1CCC(CCc2ccc(F)cc2F)CC1 |
| > 1000 | O=S(=O)(c1cccc2cccnc12)N1CCC(CCc2ccc(F)cc2F)CC1 |
| > 1000 | O=S(=O)(c1cccc(F)c1)N1CCC(CCc2ccc(F)cc2F)CC1 |

biological target: T2, 5-hydroxytryptamine receptor 2C (Homo sapiens, UniProt P28335); test: Binding affinity to human 5HT2C
T2 sequence (P28335 whole entry): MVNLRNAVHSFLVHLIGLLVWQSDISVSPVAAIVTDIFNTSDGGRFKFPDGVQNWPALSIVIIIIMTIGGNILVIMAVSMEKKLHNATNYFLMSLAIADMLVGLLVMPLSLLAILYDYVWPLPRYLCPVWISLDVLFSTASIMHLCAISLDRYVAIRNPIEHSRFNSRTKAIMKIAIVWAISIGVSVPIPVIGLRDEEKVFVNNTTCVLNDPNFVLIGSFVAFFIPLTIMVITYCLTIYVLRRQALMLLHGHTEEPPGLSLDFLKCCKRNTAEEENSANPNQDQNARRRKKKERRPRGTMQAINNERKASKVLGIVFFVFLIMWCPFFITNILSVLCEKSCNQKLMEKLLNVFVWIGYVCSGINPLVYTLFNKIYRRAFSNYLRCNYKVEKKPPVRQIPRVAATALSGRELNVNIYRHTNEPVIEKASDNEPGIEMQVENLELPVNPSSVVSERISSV

| Structure (SMILES) | Ki [nM] |
| --- | --- |
| O=S(=O)(c1ccc(F)cc1)N1CCC(F)(CCc2ccc(F)cc2F)CC1 | 806 |
| O=C(c1cccc2cccnc12)N1CCC(CCc2ccc(F)cc2F)CC1 | 28 |
| N#Cc1c[nH]c2c(C(=O)N3CCN(CCc4ccc(F)cc4F)CC3)cccc12 | 557 |
| O=C(c1ccccc1F)N1CCC(CCc2ccc(F)cc2F)CC1 | 110 |
| O=S(=O)(c1ccc(F)cc1)N1CC=C(CCc2ccc(F)cc2F)CC1 | 449 |
| O=S(=O)(c1ccc(F)cc1)N1CCC(O)(CCc2ccc(F)cc2F)CC1 | > 4000 |

Now from value to compound:

| Ki [nM] | Structure (SMILES) |
| --- | --- |
| 70 | N#Cc1ccccc1S(=O)(=O)N1CCC(CCc2ccc(F)cc2F)CC1 |
| 96 | O=S(=O)(c1cccc2ccccc12)N1CCC(CCc2ccc(F)cc2F)CC1 |
| 3780 | O=S(=O)(c1ccc(F)cc1)N1CCN(CCc2ccc(F)cc2F)CC1 |
| 239 | O=S(=O)(c1ccccc1F)N1CCC(CCc2ccc(F)cc2F)CC1 |
| 404 | O=S(=O)(c1ccccc1Cl)N1CCC(CCc2ccc(F)cc2F)CC1 |
| 2030 | O=S(=O)(c1ccc(F)cc1)N1CCC(CCc2ccc(F)cc2F)CC1 |
| 184 | O=S(=O)(c1cccc2cccnc12)N1CCC(CCc2ccc(F)cc2F)CC1 |
| 997 | O=S(=O)(c1cccc(F)c1)N1CCC(CCc2ccc(F)cc2F)CC1 |
